Results: the supplement of paper PMC9265050, “Inhibition of RNA Binding in SND1 Increases the Levels of miR-1-3p and Sensitizes Cancer Cells to Navitoclax” (Cancers, 2022)

Tested on: SW480
Test: drug sensitivity score (DSS, integrated dose-response area); higher = more sensitive (stronger viability reduction); extreme values may be limits of the assay
Procedure, shortened: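 The drug sensitivity score is the integrated area under a fitted non-linear dose–response model. It was derived from SW480 cells with doxycycline-inducible control or SND1-targeting shRNA, induced with 0.1 µg/mL doxycycline for 7 days and plated at 1000 cells per well on 384-well plates of 525 commercially available small-molecule inhibitors at five concentrations. CellTiter-Glo measured viability after 72 h.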

[1] = shRNA: SND1 shRNA1 (SND1 silenced)
[2] = shRNA: SND1 shRNA2 (SND1 silenced)
[3] = shRNA: control shRNA (non-targeting)

Row | SMILES | drug sensitivity score [1] [DSS] | drug sensitivity score [2] [DSS] | drug sensitivity score [3] [DSS]
1 | CO[C@H]1/C=C\C=C(/C)C(=O)NC2=CC(=O)C(NCCN(C)C)=C(C[C@@H](C)C[C@H](OC)[C@H](O)[C@@H](C)/C=C(\C)[C@@H]1OC(N)=O)C2=O [Alvespimycin] | 7 | 6 | 7.9
2 | CN1CC[C@H](c2c(O)cc(O)c3c(=O)cc(-c4ccccc4Cl)oc23)[C@H](O)C1 [Alvocidib] | 21.9 | 20.3 | 20.4
3 | CCC1(c2ccc(N)cc2)CCC(=O)NC1=O (stereo not given) [Aminoglutethimide] | 0 | 0 | 0
4 | CN(C)CCN1C(=O)c2cccc3cc(N)cc(c23)C1=O [Amonafide] | 8.8 | 5.2 | 7.8
5 | COc1cc(NS(C)(=O)=O)ccc1Nc1c2ccccc2nc2ccccc12 [Amsacrine] | 8.6 | 3.7 | 7
6 | S=C(NCc1ccc2c(c1)OCO2)N1CCN(c2ncnc3c2oc2ccccc23)CC1 [Amuvatinib] | 3.9 | 6.4 | 6.7
7 | O=C1CN2Cc3c(ccc(Cl)c3Cl)N=C2N1 [Anagrelide] | 0 | 0 | 0
8 | CC(C)(C#N)c1cc(Cn2cncn2)cc(C(C)(C)C#N)c1 [Anastrozole] | 0 | 0 | 0
9 | N#CC1(c2ccc(NC(=O)c3cccnc3NCc3ccncc3)cc2)CCCC1 [Apatinib] | 0 | 0 | 0
10 | Cc1c(CN2CCN(C(=O)[C@H](C)O)CC2)sc2c(N3CCOCC3)nc(-c3cnc(N)nc3)nc12 [Apitolisib] | 11 | 9.3 | 6.6
11 | CC(C)c1c(C(=O)Nc2ccccc2)c(-c2ccccc2)c(-c2ccc(F)cc2)n1CC[C@@H](O)C[C@@H](O)CC(=O)O [Atorvastatin] | 4.9 |  | 7.6
12 | CC(=O)OC[C@H]1O[C@@H]([S-])[C@H](OC(C)=O)[C@@H](OC(C)=O)[C@@H]1OC(C)=O.CCP(CC)CC.[Au+] [Auranofin] | 6.2 | 8.8 | 8.7
13 | CNC(=O)c1ccccc1Sc1ccc2c(/C=C/c3ccccn3)n[nH]c2c1 [Axitinib] | 6 | 2.8 | 5.4
14 | Nc1ncn([C@@H]2O[C@H](CO)[C@@H](O)[C@H]2O)c(=O)n1 [Azacitidine] | 3.7 | 4.4 | 2.9
15 | Cc1cc(-c2nc(-c3ccc(OC(F)(F)F)cc3)no2)nn1Cc1ccnc(N2CCN(C3CC3)CC2)c1 [BAY 87-2243] | 0.3 | 21.9 | 1.1
16 | Nc1nc(Nc2ccc3c(c2)CC[C@@H](N2CCCC2)CC3)nn1-c1cc2c(nn1)-c1ccccc1CCC2 [BGB324] | 9 | 5.9 | 9.6
17 | CC[C@@H]1C(=O)N(C)c2cnc(Nc3ccc(C(=O)NC4CCN(C)CC4)cc3OC)nc2N1C1CCCC1 [BI 2536] | 16.8 | 18.5 | 19.9

Row | SMILES | drug sensitivity score [1] [DSS] | drug sensitivity score [2] [DSS] | drug sensitivity score [3] [DSS]
18 | COc1c(C)cnc(Cn2cnc3c(Cl)nc(N)nc32)c1C [BIIB021] | 17.4 | 18.4 | 17.8
19 | O=C(Nc1cccc(Nc2ncc(Br)c(NCCc3cnc[nH]3)n2)c1)N1CCCC1 [BX-912] | 6.7 | 6.5 | 8.5
20 | Cc1ccc(NC(=O)c2ccc(CN3CC[C@H](N(C)C)C3)c(C(F)(F)F)c2)cc1Nc1nccc(-c2cncnc2)n1 [Bafetinib] | 0.3 | 0 | 0
21 | CCS(=O)(=O)N1CC(CC#N)(n2cc(-c3ncnc4[nH]ccc34)cn2)C1 [Baricitinib] | 0 | 0.3 | 1
22 | O=C(/C=C/c1cccc(S(=O)(=O)Nc2ccccc2)c1)NO [Belinostat] | 16.4 | 13.8 | 12.7
23 | Cn1c(CCCC(=O)O)nc2cc(N(CCCl)CCCl)ccc21 [Bendamustine] | 1.7 | 0.5 | 3.5
24 | N#CC(c1ccnc(OCc2ccc(CN3CCOCC3)cc2)n1)c1nc2ccccc2s1 (stereo not given) [Bentamapimod] | 2.3 |  | 4
25 | C=C(c1ccc(C(=O)O)cc1)c1cc2c(cc1C)C(C)(C)CCC2(C)C [Bexarotene] | 0 | 0 | 0
26 | CC(O)(CS(=O)(=O)c1ccc(F)cc1)C(=O)Nc1ccc(C#N)c(C(F)(F)F)c1 (stereo not given) [Bicalutamide] | 0.4 | 0.3 | 1.4
27 | CCNC(=O)CCC/C=C\C[C@@H]1[C@@H](/C=C/[C@@H](O)CCc2ccccc2)[C@H](O)C[C@@H]1O [Bimatoprost] | 0 | 0 | 0
28 | Cn1cnc2c(F)c(Nc3ccc(Br)cc3F)c(C(=O)NOCCO)cc21 [Binimetinib] | 11.9 | 6.6 | 6.6
29 | CC[C@H](NC(=O)[C@H](C)NC)C(=O)N1C[C@@H](O)C[C@H]1Cc1c(-c2[nH]c3cc(F)ccc3c2C[C@@H]2C[C@H](O)CN2C(=O)[C@H](CC)NC(=O)[C@H](C)NC)[nH]c2cc(F)ccc12 [Birinapant] | 0 | 0 | 0
30 | Cc1c(N)nc([C@H](CC(N)=O)NC[C@H](N)C(N)=O)nc1C(=O)N[C@H](C(=O)N[C@H](C)[C@@H](O)[C@H](C)C(=O)N[C@H](C(=O)NCCc1nc(-c2nc(C(=O)NCCC[S+](C)C)cs2)cs1)[C@@H](C)O)[C@@H](OC1OC(CO)C(O)C(O)C1OC1OC(CO)C(O)C(OC(N)=O)C1O)c1cnc[nH]1 (stereo not given in full) [Bleomycin] | 4.8 | 5.4 | 4.2
31 | CC(C)C[C@H](NC(=O)[C@H](Cc1ccccc1)NC(=O)c1cnccn1)B(O)O [Bortezomib] | 28.8 | 28.1 | 28.7
32 | COc1cc(Nc2c(C#N)cnc3cc(OCCCN4CCN(C)CC4)c(OC)cc23)c(Cl)cc1Cl [Bosutinib] | 9.2 | 7.3 | 8
33 | Cc1cc2c(F)c(Oc3ncnn4cc(OC[C@@H](C)O)c(C)c34)ccc2[nH]1 [Brivanib] | 0 | 0 | 0
34 | CCC/C=C/C=C/C(=O)O[C@H]1/C(=C/C(=O)OC)C[C@H]2C[C@H]([C@@H](C)O)OC(=O)C[C@H](O)C[C@@H]3C[C@H](OC(C)=O)C(C)(C)[C@](O)(C[C@@H]4C/C(=C/C(=O)OC)C[C@H](/C=C/C(C)(C)[C@]1(O)O2)O4)O3 [Bryostatin 1] | 1.7 | 0.6 | 0
